Laboratory results taken from ChEMBL document CHEMBL3045054, “Synthesis and insecticidal activity of novel 1-alkyl-3-sulfonyloxypyrazole-4-carboxamide derivatives” (2010).

Assays:
Assay type in all cases: functional
Tetranychus urticae [1] = test: Insecticidal activity against Tetranychus urticae (two-spotted spider mite) eggs in compound treated kidney bean leaf disk assessed as ovicidal at 3.1 ppm measured after 7 days; conditions: foliar, 168 h
Tetranychus urticae [2] = test: Insecticidal activity against Tetranychus urticae (two-spotted spider mite) eggs in compound treated kidney bean leaf disk assessed as ovicidal at 62.5 ppm measured after 7 days; conditions: foliar, 168 h
Tetranychus urticae [3] = test: Insecticidal activity against Tetranychus urticae (two-spotted spider mite) in compound treated kidney bean leaf disk assessed as mortality at 3.1 ppm measured after 7 days; conditions: foliar, 168 h
Tetranychus urticae [4] = test: Insecticidal activity against Tetranychus urticae (two-spotted spider mite) in compound treated kidney bean leaf disk assessed as mortality at 62.5 ppm measured after 7 days; conditions: foliar, 168 h
Nephotettix cincticeps [5] = test: Insecticidal activity against Nephotettix cincticeps (green rice leafhopper) third instar larvae in compound treated rice seedlings assessed as mortality at 3.1 ppm measured after 7 days; conditions: 168 h
Nephotettix cincticeps [6] = test: Insecticidal activity against Nephotettix cincticeps (green rice leafhopper) third instar larvae in compound treated rice seedlings assessed as mortality at 62.5 ppm measured after 7 days; conditions: 168 h
Tetranychus urticae [7] = test: Insecticidal activity against Tetranychus urticae (two-spotted spider mite) eggs in compound treated kidney bean leaf disk assessed as ovicidal at 1.3 ppm measured after 7 days; conditions: foliar, 168 h
Tetranychus urticae [8] = test: Insecticidal activity against Tetranychus urticae (two-spotted spider mite) in compound treated kidney bean leaf disk assessed as mortality at 1.3 ppm measured after 7 days; conditions: foliar, 168 h
Nephotettix cincticeps [9] = test: Insecticidal activity against Nephotettix cincticeps (green rice leafhopper) third instar larvae in compound treated rice seedlings assessed as mortality at 1.3 ppm measured after 7 days; conditions: 168 h
Tetranychus urticae [10] = test: Insecticidal activity against Tetranychus urticae (two-spotted spider mite) eggs in compound treated kidney bean leaf disk assessed as ovicidal at 500 ppm measured after 7 days; conditions: foliar, 168 h
Tetranychus urticae [11] = test: Insecticidal activity against Tetranychus urticae (two-spotted spider mite) in compound treated kidney bean leaf disk assessed as mortality at 500 ppm measured after 7 days; conditions: foliar, 168 h
Nephotettix cincticeps [12] = test: Insecticidal activity against Nephotettix cincticeps (green rice leafhopper) third instar larvae in compound treated rice seedlings assessed as mortality at 500 ppm measured after 7 days; conditions: 168 h

Compound	mortality at 3.1 ppm (Tetranychus urticae [1]) [%]	mortality at 62.5 ppm (Tetranychus urticae [2]) [%]	mortality at 3.1 ppm (Tetranychus urticae [3]) [%]	mortality at 62.5 ppm (Tetranychus urticae [4]) [%]	mortality at 3.1 ppm (Nephotettix cincticeps [5]) [%]	mortality at 62.5 ppm (Nephotettix cincticeps [6]) [%]	mortality at 1.3 ppm (Tetranychus urticae [7]) [%]	mortality at 1.3 ppm (Tetranychus urticae [8]) [%]	mortality at 1.3 ppm (Nephotettix cincticeps [9]) [%]	mortality at 500 ppm (Tetranychus urticae [10]) [%]	mortality at 500 ppm (Tetranychus urticae [11]) [%]	mortality at 500 ppm (Nephotettix cincticeps [12]) [%]
CCCC(C)(C#N)NC(=O)c1cn(C)nc1OS(C)(=O)=O (stereo not given)	3	67	8	64	81	100						
CC(C)NC(=O)c1cn(C)nc1OS(C)(=O)=O	23	37	17	100	100	100	22	16	74			
CCCNC(=O)c1cn(C)nc1OS(C)(=O)=O		7		25		87						
Cn1cc(C(=O)NC(C)(C)C)c(OS(C)(=O)=O)n1		3		23	80	100						
CCCn1cc(C(=O)NC(C)C)c(OS(C)(=O)=O)n1		26		36	76	100						
CC(C)NC(=O)c1cn(C)nc1OS(=O)(=O)N(C)C		0		0		0						
Cn1cc(C(=O)NCC#N)c(OS(C)(=O)=O)n1	8	100	8	100		47						
CCCC(C#N)(CC)NC(=O)c1cn(C)nc1OS(C)(=O)=O (stereo not given)		39		15		22						
Cn1cc(C(=O)NC2CC2)c(OS(C)(=O)=O)n1		9		21	10	97						
CC(C)N(C)C(=O)c1cn(C)nc1OS(C)(=O)=O		5		10		41						
CCCC(C)NC(=O)c1cn(C)nc1OS(C)(=O)=O (stereo not given)	6	44	7	94	95	100						
CCC(CC)NC(=O)c1cn(C)nc1OS(C)(=O)=O		19	10	100	65	100						
CCS(=O)(=O)Oc1nn(C)cc1C(=O)NC(C)C		2		14	55	100						
Cn1cc(C(=O)NC2(C#N)CCCCC2)c(OS(C)(=O)=O)n1		20		93		50						
CC(C)NC(=O)c1cn(C(C)C)nc1OS(C)(=O)=O		47		50	74	100						
CNC(=O)c1cn(C)nc1OS(C)(=O)=O		4		19		20						

Compound	mortality at 3.1 ppm (Tetranychus urticae [1]) [%]	mortality at 62.5 ppm (Tetranychus urticae [2]) [%]	mortality at 3.1 ppm (Tetranychus urticae [3]) [%]	mortality at 62.5 ppm (Tetranychus urticae [4]) [%]	mortality at 3.1 ppm (Nephotettix cincticeps [5]) [%]	mortality at 62.5 ppm (Nephotettix cincticeps [6]) [%]	mortality at 1.3 ppm (Tetranychus urticae [7]) [%]	mortality at 1.3 ppm (Tetranychus urticae [8]) [%]	mortality at 1.3 ppm (Nephotettix cincticeps [9]) [%]	mortality at 500 ppm (Tetranychus urticae [10]) [%]	mortality at 500 ppm (Tetranychus urticae [11]) [%]	mortality at 500 ppm (Nephotettix cincticeps [12]) [%]
CCS(=O)(=O)Oc1nn(C(C)(C)C)cc1C(=O)NC(C)C										0	50	0
CCC(C#N)NC(=O)c1cn(C)nc1OS(C)(=O)=O (stereo not given)	3	94	7	100	10	100						
CC(C)NC(=O)c1cn(CCF)nc1OS(C)(=O)=O		69		50	43	100						
CC(C)NC(=O)c1cn(CCCl)nc1OS(C)(=O)=O	30	34	15	80	96	100						
CC(C)NC(=O)c1cn(C)nc1OS(=O)(=O)C(F)(F)F		10		15		24						
CCn1cc(C(=O)NC(C)C)c(OS(C)(=O)=O)n1		13		51	100	100						
CCCCCC(C)NC(=O)c1cn(C)nc1OS(C)(=O)=O (stereo not given)		6		29	8	94						
CC(C)NC(=O)c1cn(C)nc1OS(=O)(=O)CCl		13		15	10	100						
Cn1cc(C(=O)NCC(F)(F)F)c(OS(C)(=O)=O)n1		61		86		22						
CCC(C#N)(CC)NC(=O)c1cn(C)nc1OS(C)(=O)=O	100	100	100	100	55	100						
CC(C)C(C)(C#N)NC(=O)c1cn(C)nc1OS(C)(=O)=O (stereo not given)	26	100	11	100	32	100						
CC(NC(=O)c1cn(C)nc1OS(C)(=O)=O)c1ccccc1 (stereo not given)		0		0		81						
CC(C)CNC(=O)c1cn(C)nc1OS(C)(=O)=O		12		89	100	100			97			
CCC(C)(C#N)NC(=O)c1cn(C)nc1OS(C)(=O)=O (stereo not given)	9	100	15	100	88	100						
CCNC(=O)c1cn(C)nc1OS(C)(=O)=O		0		0		0						
